Read-outs that look alike come from different tables or passages of the source.
Columns and labels:
[1] = molecular target: T1, human recombinant histamine H1 receptor (Homo sapiens, UniProt P35367); experiment: Histamine H1 radioligand binding ([3H]Pyrilamine); settings: for inhibition at 0.03 µM: 0.03 μM compound; for inhibition at 0.1 µM: 0.1 μM compound
T1 construct: expressed in transfected cells; host or cells: CHO cells
Procedure, shortened: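 Receptor expressed in CHO cells, assayed in 50 mM Tris-HCl pH 7.4 with 2 mM MgCl2, 100 mM NaCl, 250 mM sucrose. Compounds tested at 1 μM in 1% DMSO; non-specific binding set with 1 μM pyrilamine. Filter-bound radioactivity counted; values are percent inhibition of specific binding.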

[2] = molecular target: T2, human recombinant histamine H2 receptor (Homo sapiens, UniProt P25021); experiment: Histamine H2 radioligand binding ([125I]Aminopotentidine); settings: for inhibition at 0.3 µM: 0.3 μM compound
T2 construct: expressed in transfected cells; host or cells: CHO-K1 cells
Procedure, shortened: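 Test compounds were assessed for their ability to displace radioligand from the human recombinant histamine H2 receptor. Non-specific binding was determined in the presence of 3 μM Tiotidine, and results were expressed as percent inhibition of specific binding, with 1% DMSO serving as the vehicle.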

[3] = molecular target: T3, human recombinant adrenergic α2A receptor (Homo sapiens, UniProt P08913); experiment: Adrenergic α2A radioligand binding ([3H]MK-912); parameters: Inhibition of ligand binding, Adren. alpha2A: concentration or dose not given beside the values; settings: percent inhibition of specific binding
T3 construct: expressed in transfected cells; host or cells: insect Sf9 cells
T3 sequence (P08913 1-465): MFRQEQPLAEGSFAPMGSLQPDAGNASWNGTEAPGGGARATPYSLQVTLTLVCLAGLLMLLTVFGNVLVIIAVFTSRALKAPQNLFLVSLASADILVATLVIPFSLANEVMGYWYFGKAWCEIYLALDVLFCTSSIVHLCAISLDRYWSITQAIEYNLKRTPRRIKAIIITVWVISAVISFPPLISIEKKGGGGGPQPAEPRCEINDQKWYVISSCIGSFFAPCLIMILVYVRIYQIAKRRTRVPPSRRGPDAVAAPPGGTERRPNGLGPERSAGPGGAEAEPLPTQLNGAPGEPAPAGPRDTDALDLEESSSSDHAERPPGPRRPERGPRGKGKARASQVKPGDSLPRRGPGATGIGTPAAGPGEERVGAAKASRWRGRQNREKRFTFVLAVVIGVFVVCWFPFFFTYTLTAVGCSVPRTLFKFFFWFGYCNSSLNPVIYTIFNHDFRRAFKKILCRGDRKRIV
Protocol: To evaluate in radioligand binding assays the activity of compounds of the invention, human recombinant adrenergic α2A receptor expressed in insect Sf9 cells (Uhlen S et al. J Pharmacol Exp Ther. 271:1558, 1994) in a modified Tris-HCl buffer (50 mM Tris-HCl, pH 7.4, 12.5 mM MgCl2, 2 mM EDTA) was used. Compounds of invention were incubated with 1 nM [^3H]MK-912 for 60 minutes at 25° C. MK912 is (2S-trans)-1,3,4,5′,6,6′,7,12b-octahydro-1′,3′-dimethyl-spiro[2H-benzofuro[2,3-a]quinolizine-2,4′(1′H)-pyrimidin]-2′(3′H)-one hydrochloride Non-specific binding was estimated in the presence of 10 μM WB-4101 (2-(2,6-Dimethoxyphenoxyethyl)aminomethyl-1,4-benzodioxane hydrochloride). Receptor proteins were filtered and washed, the filters were then counted to determine [^3H]MK-912 specifically bound. […] Biochemical assay results are presented as the percent inhibition of specific binding in Table 6.

[4] = molecular target: T4, human recombinant adrenergic α2B receptor (Homo sapiens, UniProt P18089); experiment: Adrenergic α2B radioligand binding ([3H]Rauwolscine); parameters: Inhibition of ligand binding, Adren. alpha2B: concentration or dose not given beside the values; settings: percent inhibition of specific binding
T4 construct: expressed in transfected cells; host or cells: CHO-K1 cells
T4 sequence (P18089 1-450): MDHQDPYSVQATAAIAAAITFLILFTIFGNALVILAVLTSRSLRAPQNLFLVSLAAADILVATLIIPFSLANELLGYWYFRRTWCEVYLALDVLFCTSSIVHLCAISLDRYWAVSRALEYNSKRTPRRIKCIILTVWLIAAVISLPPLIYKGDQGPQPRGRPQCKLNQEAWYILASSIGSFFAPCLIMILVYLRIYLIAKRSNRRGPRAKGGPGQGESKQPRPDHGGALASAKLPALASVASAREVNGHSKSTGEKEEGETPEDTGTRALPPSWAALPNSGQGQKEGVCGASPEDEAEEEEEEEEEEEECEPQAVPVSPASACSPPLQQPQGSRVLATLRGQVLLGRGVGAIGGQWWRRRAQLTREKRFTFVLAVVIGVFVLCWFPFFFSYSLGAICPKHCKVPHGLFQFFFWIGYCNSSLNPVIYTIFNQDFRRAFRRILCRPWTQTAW
Protocol: To evaluate in radioligand binding assays the activity of compounds of the invention, human recombinant adrenergic α2B receptor expressed in Chinese hamster ovary (CHO-K1) cells (Uhlen S et al. Eur J. Pharmacol. 343(1):93, 1998) in a modified Tris-HCl buffer (50 mM Tris-HCl, pH 7.4, 12.5 mM MgCl2, 1 mM EDTA, 0.2% BSA) was used. Compounds of the invention were incubated with 2.5 nM [^3H]Rauwolscine for 60 minutes at 25° C. Non-specific binding was estimated in the presence of 10 μM Prozosin. Receptor proteins were filtered and washed, the filters were then counted to determine [^3H]Rauwolscine specifically bound. […] Biochemical assay results are presented as the percent inhibition of specific binding in Table 6.

[5] = molecular target: T5, human recombinant serotonin (5-Hydroxytryptamine) 5-HT6 receptor (Homo sapiens, UniProt P50406); experiment: Serotonin 5-HT6 radioligand binding ([3H]LSD); parameters: Inhibition of ligand binding, Ser. 5-HT6: concentration or dose not given beside the values; settings: percent inhibition of specific binding
T5 construct: expressed in transfected cells; host or cells: human HeLa cells
From the text: Receptor proteins were filtered and washed, the filters were then counted to determine [3H]LSD specifically bound. […] Biochemical assay results are presented as the percent inhibition of specific binding in Table 6.

[6] = 1 μM compound, […] [3H]Pyrilamine, read-out: Histamine Binding H1, percent inhibition of specific binding
[7] = percent inhibition of specific binding, screened at 1 μM, read-out: Inhibition of ligand binding, Hist. H1
[8] = 1 μM compound, 0.1 nM [125I]Aminopotentidine, read-out: Histamine Binding H2, percent inhibition of specific binding
[9] = percent inhibition of specific binding, screened at 1 μM, read-out: Inhibition of ligand binding, Hist. H2
[10] = […] [3H]Pyrilamine, read-out: Histamine Binding H1, percent inhibition of specific binding
[11] = 0.1 nM [125I]Aminopotentidine, read-out: Histamine Binding H2, percent inhibition of specific binding

T5 sequence (P50406 whole entry): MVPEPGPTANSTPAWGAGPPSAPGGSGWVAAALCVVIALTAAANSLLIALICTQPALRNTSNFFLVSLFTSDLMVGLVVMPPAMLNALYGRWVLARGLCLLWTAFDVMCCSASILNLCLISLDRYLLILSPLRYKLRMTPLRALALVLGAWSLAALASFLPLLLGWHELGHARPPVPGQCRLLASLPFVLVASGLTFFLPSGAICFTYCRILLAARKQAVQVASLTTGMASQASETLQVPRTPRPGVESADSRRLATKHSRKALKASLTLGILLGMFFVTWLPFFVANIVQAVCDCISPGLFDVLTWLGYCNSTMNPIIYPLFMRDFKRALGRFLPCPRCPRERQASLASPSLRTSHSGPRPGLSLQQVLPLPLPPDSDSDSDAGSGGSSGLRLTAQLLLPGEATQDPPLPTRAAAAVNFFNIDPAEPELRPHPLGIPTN
T2 sequence (P25021 whole entry): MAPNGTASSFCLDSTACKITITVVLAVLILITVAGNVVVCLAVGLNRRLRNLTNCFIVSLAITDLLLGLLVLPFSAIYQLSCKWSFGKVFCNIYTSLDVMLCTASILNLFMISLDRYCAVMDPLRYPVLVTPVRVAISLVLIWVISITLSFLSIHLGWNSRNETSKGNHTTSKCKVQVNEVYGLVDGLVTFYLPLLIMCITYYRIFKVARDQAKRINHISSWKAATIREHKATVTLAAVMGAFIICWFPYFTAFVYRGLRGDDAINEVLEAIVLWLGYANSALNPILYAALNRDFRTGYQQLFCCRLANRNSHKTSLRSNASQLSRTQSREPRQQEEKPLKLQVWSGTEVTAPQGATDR
T1 sequence (P35367 whole entry): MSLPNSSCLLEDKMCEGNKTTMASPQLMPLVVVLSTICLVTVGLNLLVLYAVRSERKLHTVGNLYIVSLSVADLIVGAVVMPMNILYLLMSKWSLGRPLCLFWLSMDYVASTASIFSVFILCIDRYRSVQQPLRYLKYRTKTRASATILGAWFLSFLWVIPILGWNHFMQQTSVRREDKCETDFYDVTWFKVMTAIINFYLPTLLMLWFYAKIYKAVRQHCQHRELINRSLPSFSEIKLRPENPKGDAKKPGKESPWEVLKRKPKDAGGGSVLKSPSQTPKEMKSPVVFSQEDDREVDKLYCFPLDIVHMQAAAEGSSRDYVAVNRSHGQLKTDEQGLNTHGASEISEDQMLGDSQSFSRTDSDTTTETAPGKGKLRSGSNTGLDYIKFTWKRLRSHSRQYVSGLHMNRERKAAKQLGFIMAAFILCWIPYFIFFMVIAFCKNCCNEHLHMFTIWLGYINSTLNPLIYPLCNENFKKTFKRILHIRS

Structure (SMILES): CCN1CCc2c(c3ccccc3n2Cc2ccccc2)C1 [Compound 16, 5-benzyl-2-ethyl-2,3,4,5-tetrahydro-1H-pyrido[4,3-b]indole]
- inhibition at 1 µM [1, 6]: 10%
- inhibition at 1 µM [1, 7]: 10%
- inhibition at 1 µM [2, 8]: 3%
- inhibition at 1 µM [2, 9]: 3%
- Inhibition of ligand binding, Adren. alpha2A [3]: 10%
- Inhibition of ligand binding, Adren. alpha2B [4]: 10%
- Inhibition of ligand binding, Ser. 5-HT6 [5]: 6%

Structure (SMILES): Cc1ccc(Cn2c3c(c4ccccc42)CN(C)CC3)cn1 [Compound 17, 2,3,4,5-tetrahydro-2-methyl-5-((6-methylpyridin-3-yl)methyl)-1H-pyrido[4,3-b]indole]
- inhibition at 1 µM [1, 6]: 15%
- inhibition at 1 µM [1, 7]: 15%
- inhibition at 1 µM [2, 8]: -2%
- inhibition at 1 µM [2, 9]: -2%
- Inhibition of ligand binding, Adren. alpha2A [3]: 56%
- Inhibition of ligand binding, Adren. alpha2B [4]: 9%
- Inhibition of ligand binding, Ser. 5-HT6 [5]: 0%

Structure (SMILES): CCOC(=O)N1CCc2c(c3cc(Br)ccc3n2CCc2ccc(C)nc2)C1 [Compound 18, ethyl 8-bromo-3,4-dihydro-5-(2-(6-methylpyridin-3-yl)ethyl)-1H-pyrido[4,3-b]indole-2(5H)-carboxylate]
- inhibition at 1 µM [1, 6]: -14%
- inhibition at 1 µM [1, 7]: -14%
- inhibition at 1 µM [2, 8]: 1%
- inhibition at 1 µM [2, 9]: 1%
- Inhibition of ligand binding, Adren. alpha2A [3]: −10%
- Inhibition of ligand binding, Adren. alpha2B [4]: −8%
- Inhibition of ligand binding, Ser. 5-HT6 [5]: 6%

Structure (SMILES): CCOC(=O)N1CCc2c(c3cc(-c4cccnc4)ccc3n2CCc2ccc(C)nc2)C1 [Compound 19, ethyl 3,4-dihydro-5-(2-(6-methylpyridin-3-yl)ethyl)-8-(pyridin-3-yl)-1H-pyrido[4,3-b]indole-2(5H)-carboxylate]
- inhibition at 1 µM [1, 6]: -3%
- inhibition at 1 µM [1, 7]: -3%
- inhibition at 1 µM [2, 8]: 10%
- inhibition at 1 µM [2, 9]: 10%
- Inhibition of ligand binding, Adren. alpha2A [3]: −8%
- Inhibition of ligand binding, Adren. alpha2B [4]: −8%
- Inhibition of ligand binding, Ser. 5-HT6 [5]: −5%

Structure (SMILES): CCN1CCc2c(c3cc(C)ccc3n2CCc2ccccn2)C1 [Compound 23, 2-ethyl-2,3,4,5-tetrahydro-8-methyl-5-(2-(pyridin-2-yl)ethyl)-1H-pyrido[4,3-b]indole]
- inhibition at 1 µM [1, 6]: 69%
- inhibition at 1 µM [1, 7]: 69%
- inhibition at 1 µM [2, 8]: 28%
- inhibition at 1 µM [2, 9]: 28%
- Inhibition of ligand binding, Adren. alpha2A [3]: 57%
- Inhibition of ligand binding, Adren. alpha2B [4]: 97%
- Inhibition of ligand binding, Ser. 5-HT6 [5]: 47%

Structure (SMILES): CCOC(=O)N1CCc2c(c3cc(C)ccc3n2CCc2ccccc2)C1 [Compound 24, ethyl 3,4-dihydro-8-methyl-5-phenethyl-1H-pyrido[4,3-b]indole-2(5H)-carboxylate]
- inhibition at 1 µM [1, 6]: -4%
- inhibition at 1 µM [1, 7]: -4%
- inhibition at 1 µM [2, 8]: 13%
- inhibition at 1 µM [2, 9]: 13%
- Inhibition of ligand binding, Adren. alpha2A [3]: 7%
- Inhibition of ligand binding, Adren. alpha2B [4]: −1%
- Inhibition of ligand binding, Ser. 5-HT6 [5]: −4%

Structure (SMILES): Cc1ccc(CCn2c3c(c4cc(C)ccc42)CN(C)CC3)cc1 [Compound 25, 2,3,4,5-tetrahydro-2,8-dimethyl-5-(4-methylphenethyl)-1H-pyrido[4,3-b]indole]
- inhibition at 0.03 µM [1, 10]: 71%
- inhibition at 0.1 µM [1, 10]: 89%
- inhibition at 1 µM [1, 6]: 97%
- inhibition at 1 µM [1, 7]: 97%
- inhibition at 0.1 µM ([2]; 0.1 μM compound, 0.1 nM [125I]Aminopotentidine, read-out: Histamine Binding H2, percent inhibition of specific binding): 54%
- inhibition at 0.3 µM [2, 11]: 75%
- inhibition at 1 µM [2, 8]: 96%
- inhibition at 1 µM [2, 9]: 96%
- Inhibition of ligand binding, Adren. alpha2A [3]: 99%
- Inhibition of ligand binding, Adren. alpha2B [4]: 108%
- Inhibition of ligand binding, Ser. 5-HT6 [5]: 103%

Structure (SMILES): CCN1CCc2c(c3cc(C)ccc3n2CCc2ccncc2)C1 [Compound 27, 2-ethyl-2,3,4,5-tetrahydro-8-methyl-5-(2-(pyridin-4-yl)ethyl)-1H-pyrido[4,3-b]indole]
- inhibition at 0.03 µM [1, 10]: 58%
- inhibition at 0.1 µM [1, 10]: 77%
- inhibition at 1 µM [1, 6]: 99%
- inhibition at 1 µM [1, 7]: 99%
- inhibition at 1 µM [2, 8]: 32%
- inhibition at 1 µM [2, 9]: 32%
- Inhibition of ligand binding, Adren. alpha2A [3]: 53%
- Inhibition of ligand binding, Adren. alpha2B [4]: 100%
- Inhibition of ligand binding, Ser. 5-HT6 [5]: 38%

Structure (SMILES): CN1CCc2c(c3cc(Cl)ccc3n2CCc2ccccn2)C1 [Compound 30, 8-chloro-2,3,4,5-tetrahydro-2-methyl-5-(2-(pyridin-2-yl)ethyl)-1H-pyrido[4,3-b]indole]
- inhibition at 1 µM [1, 6]: 80%
- inhibition at 1 µM [1, 7]: 80%
- inhibition at 1 µM [2, 8]: 34%
- inhibition at 1 µM [2, 9]: 34%
- Inhibition of ligand binding, Adren. alpha2A [3]: 84%
- Inhibition of ligand binding, Adren. alpha2B [4]: 102%
- Inhibition of ligand binding, Ser. 5-HT6 [5]: 90%

Structure (SMILES): CCN1CCc2c(c3cc(C)ccc3n2CCc2ccc(C)nc2)C1 [Compound 31, 2-ethyl-2,3,4,5-tetrahydro-8-methyl-5-(2-(6-methylpyridin-3-yl)ethyl)-1H-pyrido[4,3-b]indole]
- inhibition at 1 µM [1, 6]: 100%
- inhibition at 1 µM [1, 7]: 100%
- inhibition at 1 µM [2, 8]: 34%
- inhibition at 1 µM [2, 9]: 34%
- Inhibition of ligand binding, Adren. alpha2A [3]: 66%
- Inhibition of ligand binding, Adren. alpha2B [4]: 91%
- Inhibition of ligand binding, Ser. 5-HT6 [5]: 64%

Structure (SMILES): Cc1ccc2c(c1)c1c(n2CCc2ccc(Cl)cc2)CCN(C)C1 [Compound 32, 5-(4-chlorophenethyl)-2,3,4,5-tetrahydro-2,8-dimethyl-1H-pyrido[4,3-b]indole]
- inhibition at 0.01 µM ([1]; 10 nM (0.01 μM) compound, […] [3H]Pyrilamine, read-out: Histamine Binding H1, percent inhibition of specific binding): 52%
- inhibition at 0.1 µM [1, 10]: 87%
- inhibition at 1 µM [1, 6]: 101%
- inhibition at 1 µM [1, 7]: 101%
- inhibition at 0.3 µM [2, 11]: 99%
- inhibition at 1 µM [2, 8]: 101%
- inhibition at 1 µM [2, 9]: 101%
- Inhibition of ligand binding, Adren. alpha2A [3]: 97%
- Inhibition of ligand binding, Adren. alpha2B [4]: 110%
- Inhibition of ligand binding, Ser. 5-HT6 [5]: 101%

From patent US9096591B2, “Tetracyclic compounds” (Medivation Technologies, Inc., priority 2007, dated 2015)
